Patent US9199927B2, “Guanidinobenzoic acid compound” (Astellas Pharma Inc., priority 2011, dated 2015)
Where a name gives a salt, the structure may show the parent alone. Read-outs that look alike come from different tables or passages of the source.

What was measured:
[1] = biological target: mouse trypsin (m-trypsin); assay: Inhibitory activity of trypsin enzyme (mouse trypsin purified from small intestine contents, BZiPAR fluorescent substrate); assay type: biochemical; conditions: mouse trypsin diluted 1/50, BZiPAR substrate, 30 minutes at room temperature
Text: (§1) 1. Inhibitory Activity of Trypsin Enzyme in Humans and Mice
(§2) In the experiment, human recombinant trypsin (r-h trypsin; manufactured by WAKO, cat. #206-17171) and mouse trypsin (m-trypsin; purified from the mouse small intestine contents by the present Company) were used.
The method to extract the trypsin from the mouse small intestine is shown below.
The small intestine contents and the gastrointestinal tract of 10 mice were suspended in PBS using Polytron and subjected to centrifugation at 15,000×g several times. The supernatant was mixed at 4° C. for 16 hours with a Benzamidine Sepharose 4 Fast Flow Resin (GE Healthcare: #17-5123-10). After washing the resin with PBS, m-trypsin was eluted with a glycine elution buffer (pH 3.0).
(§3) The outline of the measurement method is shown below.
(§4) The compound was dissolved in dimethyl sulfoxide (DMSO), and diluted to an arbitrary concentration (A). A was 100-fold diluted with a buffer (0.1 M Tris (pH 8.0), 0.15 M NaCl, 10 mM CaCl2, 0.05% Brij38) (B). The r-h trypsin was diluted with a buffer to 0.088 μg/mL, and the m-trypsin was diluted with a buffer to 1/50 (C). […] The substrate solution of a substrate for the enzyme reaction, BZiPAR, (Rhodamine Reference Substrate) was diluted with a buffer to 5 μmol/L (D). B; 5 μL, C; 5 μL, and D; 10 μL were added to a 384-plate, and incubated at room temperature for 30 minutes. The fluorescent signals were detected with Ex/Em=497/520 using Tecan Safire Fluorometer. […] Based on the obtained inhibitory rates, IC50 values (nM) were calculated from the non-linear regression. The test was carried out in the same manner, using camostat as a control compound.
(§5) Ex in the table represents the Example No. as denoted below.

[2] = biological target: human recombinant trypsin (r-h trypsin) (Homo sapiens (Human), UniProt P07477); assay: Inhibitory activity of trypsin enzyme (human recombinant trypsin, BZiPAR fluorescent substrate); assay type: biochemical; conditions: human recombinant trypsin 0.088 μg/mL, 30 minutes at room temperature
Procedure: as §1, §2, §3, §4, §5

ICR mice = assay: Increasing study of fecal protein concentration in mice; assay type: in vivo; conditions: Mus musculus, 5 mg/kg oral, feces collected 3 to 9 hours after, control = 1, read-out: protein increasing activity in feces, fold vs control
Procedure: 2. Increasing Study of Fecal Protein Concentration in Mice
For the experiment, 6-weeks old ICR mice (male) were used, and the experiment was carried out in five per group. After fasting the mice for 15 hours, the control group was forcibly orally administered with a 0.5% methyl cellulose (MC) solution, and the test drug group was forcibly orally administered (5 mg/kg) with a solution or suspension obtained by dissolving or suspending the compound in the 0.5% MC solution. The fasting was stopped immediately thereafter, free feeding (CE-2) started and then the feces were collected from after 3 hours to after 9 hours. All of the obtained feces were dissolved and suspended in 6 mL of distilled water, and centrifuged for 10 minutes at 3000 rpm. The protein concentration in the supernatant was measured by a Bradford method, and the amount of the protein in 1 g of feces was calculated by dividing the protein concentration in the feces by the total weight of feces. Further, the efficacy was investigated from the ratio to the control. For the compounds that were evaluated multiple times, the average values were calculated.
For some representative compounds, the protein increasing activities in feces are shown in Table 2, assuming a value for the control as 1. Ex in the table represents the Example No. as denoted below of the test compound.

SMILES | IC50 [1] [nM] | IC50 [2] [nM] | response vs control in vivo at 5 mg/kg (ICR mice) [%] | response vs control in vivo at 5 mg/kg (ICR mice; po, 9 h) [%]
N=C(N)Nc1ccc(C(=O)Oc2ccc(CC(=O)N[C@@H](Cc3ccc(O)cc3)C(=O)O)c(Cl)c2)cc1 [Example 1, N-({4-[(4-carbamimidamidobenzoyl)oxy]-2-chlorophenyl}acetyl)-L-tyrosine hydrochloride] | 0.19 | 0.17 | – | –
N=C(N)Nc1ccc(C(=O)Oc2ccc(CC(=O)N[C@@H](Cc3c[nH]cn3)C(=O)O)c(Cl)c2)cc1 [Example 2, N-({4-[(4-carbamimidamidobenzoyl)oxy]-2-chlorophenyl}acetyl)-L-histidine 2 hydrochloride] | 0.49 | 0.92 | – | –
N=C(N)Nc1ccc(C(=O)Oc2ccc(CCC(=O)Nc3ccc(CC(=O)O)cc3)c(Cl)c2)cc1 [Example 11] | 0.45 | 0.76 | – | –
N=C(N)Nc1ccc(C(=O)Oc2ccc(CC(=O)N[C@@H](Cc3ccc(C(=O)O)cc3)C(=O)O)c(Cl)c2)cc1 [Example 13] | 0.84 | 0.91 | 185 | –
N=C(N)Nc1ccc(C(=O)Oc2ccc(CC(=O)N[C@@H](Cc3ccc(Cl)cc3)C(=O)O)c(Cl)c2)cc1 [Example 15] | – | – | – | 167
COc1ccc(C[C@H](NC(=O)Cc2ccc(OC(=O)c3ccc(NC(=N)N)cc3)cc2Cl)C(=O)O)cc1 [Example 16] | – | – | – | 170
N=C(N)Nc1ccc(C(=O)Oc2ccc(CC(=O)N[C@@H](Cc3ccccc3)C(=O)O)c(-c3ccccc3)c2)cc1 [Example 17] | 0.27 | 0.43 | – | –
N=C(N)Nc1ccc(C(=O)Oc2ccc3nc(C(=O)Nc4ccc(CC(=O)O)cc4)ccc3c2)cc1 [Example 22] | 0.2 | 0.29 | – | –
N=C(N)Nc1ccc(C(=O)Oc2cc(F)c(CC(=O)N[C@@H](Cc3ccccc3)C(=O)O)c(F)c2)cc1 [Example 24] | 0.17 | 0.21 | – | –
N=C(N)Nc1ccc(C(=O)Oc2ccc(CC(=O)N[C@@H](Cc3ccccc3)C(=O)O)c(C(F)(F)F)c2)cc1 [Example 25] | 0.25 | 0.29 | – | –
N=C(N)Nc1ccc(C(=O)Oc2ccc(CC(=O)N[C@@H](Cc3ccccc3)C(=O)O)c(Cl)c2Cl)cc1 [Example 26] | 0.18 | 0.29 | – | –
N=C(N)Nc1ccc(C(=O)Oc2cc(Cl)c(CC(=O)N[C@@H](Cc3ccccc3)C(=O)O)c(Cl)c2)cc1 [Example 27] | 0.19 | 0.26 | – | –
N=C(N)Nc1ccc(C(=O)Oc2ccc(CC(=O)N[C@@H](Cc3ccccc3F)C(=O)O)c(Cl)c2)cc1 [Example 29] | 0.21 | 0.31 | – | –
N=C(N)Nc1ccc(C(=O)Oc2ccc(CC(=O)N[C@@H](Cc3cccc(F)c3)C(=O)O)c(Cl)c2)cc1 [Example 30] | 0.19 | 0.26 | – | –
N=C(N)Nc1ccc(C(=O)Oc2ccc(CC(=O)N[C@@H](Cc3ccc(C(F)(F)F)cc3)C(=O)O)c(Cl)c2)cc1 [Example 31] | 0.34 | 0.31 | – | –
CN(C(=O)Cc1ccc(OC(=O)c2ccc(NC(=N)N)cc2)cc1Cl)[C@@H](Cc1ccccc1)C(=O)O [Example 33] | 0.6 | 0.88 | – | –
N=C(N)Nc1ccc(C(=O)Oc2ccc(CC(=O)N[C@@H](Cc3ccccc3)C(=O)O)c(C3CC3)c2)cc1 [Example 34] | 0.24 | 0.36 | – | –
N=C(N)Nc1ccc(C(=O)Oc2ccc(CC(=O)N(CCc3ccccc3)CC(=O)O)c(Cl)c2)cc1 [Example 35] | 0.28 | 0.44 | – | –
N=C(N)Nc1ccc(C(=O)Oc2ccc(CCC(=O)N(CC(=O)O)Cc3cccc(C(=O)O)c3)c(Cl)c2)cc1 [Example 36] | 0.38 | 0.43 | 192 | –
N=C(N)Nc1ccc(C(=O)Oc2ccc(CCCCC(=O)N[C@@H](Cc3ccccc3)C(=O)O)c(Cl)c2)cc1 [Example 37] | 0.34 | 0.38 | – | –

SMILES | IC50 [1] [nM] | IC50 [2] [nM] | response vs control in vivo at 5 mg/kg (ICR mice) [%] | response vs control in vivo at 5 mg/kg (ICR mice; po, 9 h) [%]
N=C(N)Nc1ccc(C(=O)Oc2ccc(CC(=O)N(CC(=O)O)[C@@H](Cc3ccccc3)C(=O)O)c(Cl)c2)cc1 [Example 40] | 0.45 | 0.5 | – | –
N=C(N)Nc1ccc(C(=O)Oc2ccc(CCC(=O)N(CC(=O)O)c3cccc(CC(=O)O)c3)c(Cl)c2)cc1 [Example 41] | – | – | – | 177
N=C(N)Nc1ccc(C(=O)Oc2ccc(CCC(=O)N(CCC(=O)O)Cc3cccc(C(=O)O)c3)c(Cl)c2)cc1 [Example 45] | 0.66 | 0.57 | 165 | –
N=C(N)Nc1ccc(C(=O)Oc2ccc(CCCC(=O)N(CC(=O)O)Cc3cccc(C(=O)O)c3)c(Cl)c2)cc1 [Example 51] | 0.47 | 0.46 | – | –
N=C(N)Nc1ccc(C(=O)Oc2ccc(CCC(=O)NCc3ccccc3C(=O)O)c(Cl)c2)cc1 [Example 52] | 0.39 | 0.3 | 182 | –
N=C(N)Nc1ccc(C(=O)Oc2ccc(CCC(=O)N(CC(=O)O)Cc3ccccc3C(=O)O)c(Cl)c2)cc1 [Example 53] | 0.35 | 0.45 | 179 | –
N=C(N)Nc1ccc(C(=O)Oc2ccc(CC(=O)N(CCC(=O)O)[C@@H](Cc3ccccc3)C(=O)O)c(Cl)c2)cc1 [Example 54] | 0.38 | 0.42 | – | –
N=C(N)Nc1ccc(C(=O)Oc2ccc(CC(=O)N[C@@H](Cc3ccc(OCC(=O)O)cc3)C(=O)O)c(Cl)c2)cc1 [Example 56] | 0.64 | 0.88 | 202 | –
N=C(N)Nc1ccc(C(=O)Oc2ccc(CCC(=O)N(CCc3cccc(C(=O)O)c3)CC(=O)O)c(Cl)c2)cc1 [Example 58] | 0.68 | 0.73 | 179 | –
N=C(N)Nc1ccc(C(=O)Oc2ccc(CCC(=O)N(CC(=O)O)Cc3ccccc3)c(Cl)c2)cc1 [Example 62] | 0.17 | 0.29 | – | –
N=C(N)Nc1ccc(C(=O)Oc2ccc(CCC(=O)N(CC(=O)O)Cc3csc(C(=O)O)c3)c(Cl)c2)cc1 [Example 63] | – | – | – | 184
N=C(N)Nc1ccc(C(=O)Oc2ccc(CCN(CC(=O)O)Cc3cccc(C(=O)O)c3)c(Cl)c2)cc1 [Example 65] | 0.45 | 0.4 | – | –
N=C(N)Nc1ccc(C(=O)Oc2ccc(CCN(CC(=O)O)C(=O)Cc3cccc(C(=O)O)c3)c(Cl)c2)cc1 [Example 66] | 0.45 | 0.35 | – | –
N=C(N)Nc1ccc(C(=O)Oc2ccc3nc(C(=O)N[C@@H](Cc4ccc(OCC(=O)O)cc4)C(=O)O)ccc3c2)cc1 [Example 71] | 0.23 | 0.18 | – | –
N=C(N)Nc1ccc(C(=O)Oc2ccc(CCC(=O)N(Cc3cccc(C(=O)O)c3)Cc3cccc(C(=O)O)c3)c(Cl)c2)cc1 [Example 93] | 0.56 | 0.4 | – | –
CN(C(=O)CN(CC(=O)O)Cc1cccc(C(=O)O)c1)c1ccc(OC(=O)c2ccc(NC(=N)N)cc2)cc1Cl [Example 94] | 0.39 | 0.42 | – | –
N=C(N)Nc1ccc(C(=O)Oc2ccc3nc(C(=O)N(CC(=O)O)Cc4ccc(CC(=O)O)cc4)ccc3c2)cc1 [Example 113] | – | – | – | 193
N=C(N)Nc1ccc(C(=O)Oc2ccc3cc(C(=O)N[C@@H](Cc4ccccc4)C(=O)O)[nH]c3c2)cc1 [Example 119] | – | – | – | 139
N=C(N)Nc1ccc(C(=O)Oc2ccc(CCC(=O)NC(Cc3ccccc3)C(=O)O)c(Cl)c2)cc1 (stereo not shown) [Example 131] | 0.4 | 0.51 | – | –
